In ChEMBL document CHEMBL1201862, “PubChem BioAssay data set” (2004):
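Exposure lasted 48 hours, with cells grown in 96-well plates and compounds tested at five concentrations. GI50: concentration for 50% inhibition of growth.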 Activity calls are given as the source filed them. Cut-off read from the data, not from the text of the source: active = GI50 up to about 1.1 µM and inactive = higher.

Tests used:
Assay in all cases: NCI tumour cell line growth inhibition, 48 h
HL-60 = test system: HL-60
HOP-92 = test system: HOP-92
M14 = test system: M14
RXF 393 = test system: RXF 393
IGROV-1 = test system: IGROV-1
A498 = test system: A498
SNB-19 = test system: SNB-19
NCI-H460 = test system: NCI-H460
UO-31 = test system: UO-31
SK-OV-3 = test system: SK-OV-3
SK-MEL-5 = test system: SK-MEL-5
MDA-N = test system: MDA-N
KM12 = test system: KM12
HCT-15 = test system: HCT-15
A549 = test system: A549
SF-268 = test system: SF-268
RPMI-8226 = test system: RPMI-8226
786-0 = test system: 786-0
PC-3 = test system: PC-3
MDA-MB-231 = test system: MDA-MB-231
OVCAR-4 = test system: OVCAR-4
U-251 = test system: U-251
LOX IMVI = test system: LOX IMVI
SF-295 = test system: SF-295
SF-539 = test system: SF-539
HCT-116 = test system: HCT-116
MDA-MB-435 = test system: MDA-MB-435
HCC 2998 = test system: HCC 2998
CCRF-CEM = test system: CCRF-CEM
Hs-578T = test system: Hs-578T
Malme-3M = test system: Malme-3M
UACC-257 = test system: UACC-257
NCI-H226 = test system: NCI-H226
NCI-H23 = test system: NCI-H23
OVCAR-8 = test system: OVCAR-8
SK-MEL-28 = test system: SK-MEL-28
SN12C = test system: SN12C
OVCAR-5 = test system: OVCAR-5
SNB-75 = test system: SNB-75
MCF7 = test system: MCF7
NCI-H522 = test system: NCI-H522
NCI/ADR-RES = test system: NCI/ADR-RES
MOLT-4 = test system: MOLT-4
BT-549 = test system: BT-549
SR = test system: SR
HT-29 = test system: HT-29
TK-10 = test system: TK-10
ACHN = test system: ACHN
CAKI-1 = test system: CAKI-1
EKVX = test system: EKVX
K562 = test system: K562
SW-620 = test system: SW-620
HOP-62 = test system: HOP-62
OVCAR-3 = test system: OVCAR-3
SK-MEL-2 = test system: SK-MEL-2
UACC-62 = test system: UACC-62
COLO 205 = test system: COLO 205
DU-145 = test system: DU-145
T47D = test system: T47D

Measured: GI50

O=C1C(F)=CC(COC(c2ccccc2)(c2ccccc2)c2ccccc2)OC1n1cc(F)c(=O)[nH]c1=O (stereo not drawn)
active: HL-60 0.592 µM | MDA-N 1.11 µM | RPMI-8226 0.413 µM | LOX IMVI 0.533 µM | MDA-MB-435 0.746 µM | CCRF-CEM 0.319 µM | MOLT-4 0.8 µM | HT-29 0.412 µM | K562 0.278 µM | SW-620 0.723 µM
1.67 µM: HCT-15
inactive: HOP-92 2.11 µM | M14 1.83 µM | RXF 393 1.96 µM | IGROV-1 1.46 µM | A498 8.79 µM | SNB-19 5.09 µM | NCI-H460 2.62 µM | UO-31 2.2 µM | SK-OV-3 7.05 µM | SK-MEL-5 1.35 µM | KM12 1.91 µM | A549 2.18 µM | SF-268 2.9 µM | 786-0 1.97 µM | PC-3 1.71 µM | MDA-MB-231 3.26 µM | OVCAR-4 3.99 µM | U-251 1.36 µM | SF-295 2.2 µM | SF-539 1.94 µM | HCT-116 2.77 µM | HCC 2998 3.54 µM | Hs-578T 4.24 µM | Malme-3M 3.33 µM | UACC-257 1.96 µM | NCI-H226 1.83 µM | NCI-H23 1.77 µM | OVCAR-8 1.87 µM | SK-MEL-28 1.62 µM | SN12C 1.75 µM | OVCAR-5 2.14 µM | SNB-75 2.58 µM | MCF7 2.07 µM | NCI-H522 1.61 µM | NCI/ADR-RES 2.04 µM | BT-549 1.71 µM | SR 6.18 µM | TK-10 1.34 µM | ACHN 1.64 µM | CAKI-1 2.49 µM | EKVX 7.89 µM | HOP-62 3.18 µM | OVCAR-3 1.48 µM | SK-MEL-2 2.91 µM | UACC-62 1.61 µM

O=C(NCCn1ccnn1)Nc1ccccc1
inactive: COLO 205 > 100 µM | HL-60 > 100 µM | HOP-92 > 100 µM | M14 > 100 µM | IGROV-1 > 100 µM | SNB-19 > 100 µM | NCI-H460 > 100 µM | SK-MEL-5 > 100 µM | KM12 > 100 µM | A549 > 100 µM | SF-268 > 100 µM | RPMI-8226 > 100 µM | 786-0 > 100 µM | PC-3 > 100 µM | MDA-MB-231 > 100 µM | U-251 > 100 µM | LOX IMVI > 100 µM | SF-295 > 100 µM | MDA-MB-435 > 100 µM | HCC 2998 > 100 µM | CCRF-CEM > 100 µM | Malme-3M > 100 µM | UACC-257 > 100 µM | DU-145 > 100 µM | NCI-H23 > 100 µM | OVCAR-8 > 100 µM | SK-MEL-28 > 100 µM | SN12C > 100 µM | OVCAR-5 > 100 µM | SNB-75 > 100 µM | MCF7 > 100 µM | NCI-H522 > 100 µM | NCI/ADR-RES > 100 µM | MOLT-4 > 100 µM | BT-549 > 100 µM | SR > 100 µM | HT-29 > 100 µM | TK-10 > 100 µM | ACHN > 100 µM | CAKI-1 > 100 µM | EKVX > 100 µM | K562 > 100 µM | SW-620 > 100 µM | HOP-62 > 100 µM | SK-MEL-2 > 100 µM
> 100 µM: HCT-15

COc1ccc(/N=N/c2ccc3oc(=O)c(C(=O)Nc4ccc(Cl)cc4)cc3c2)cc1
inactive: COLO 205 > 10 µM | HOP-92 7.83 µM | M14 > 10 µM | RXF 393 > 10 µM | IGROV-1 3.52 µM | A498 > 10 µM | T47D 6.76 µM | NCI-H460 > 10 µM | UO-31 2.24 µM | SK-OV-3 > 10 µM | SK-MEL-5 > 10 µM | MDA-N > 10 µM | KM12 4.32 µM | SF-268 3.72 µM | RPMI-8226 > 10 µM | 786-0 > 10 µM | PC-3 2.56 µM | MDA-MB-231 6.25 µM | OVCAR-4 > 10 µM | U-251 5.4 µM | LOX IMVI 9.95 µM | SF-295 > 10 µM | SF-539 5.18 µM | MDA-MB-435 > 10 µM | HCC 2998 > 10 µM | Hs-578T > 10 µM | Malme-3M > 10 µM | UACC-257 > 10 µM | DU-145 > 10 µM | NCI-H226 > 10 µM | NCI-H23 6.38 µM | OVCAR-8 > 10 µM | SK-MEL-28 > 10 µM | SN12C > 10 µM | OVCAR-5 > 10 µM | SNB-75 > 10 µM | MCF7 3.17 µM | NCI-H522 > 10 µM | NCI/ADR-RES 5.5 µM | MOLT-4 7.46 µM | SR 2.38 µM | HT-29 > 10 µM | TK-10 > 10 µM | ACHN > 10 µM | CAKI-1 > 10 µM | EKVX 6.15 µM | SW-620 6.97 µM | HOP-62 > 10 µM | OVCAR-3 7.28 µM | SK-MEL-2 > 10 µM
0.67 µM: HCT-15
